Data as given in PubChem BioAssay (NCI).
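These data come from cells grown in 96-well plates and exposed to compound for 48 hours at five concentrations. At the GI50, growth is halved. Definition used: TGI = concentration required for complete inhibition of growth.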

What was measured:
Assay in all cases: NCI-60 cell line screen, 48 h
DU-145 prostate = test system: DU-145 prostate
SN12C renal = test system: SN12C renal
SF-268 CNS = test system: SF-268 CNS
SF-539 CNS = test system: SF-539 CNS
HCT-15 colon = test system: HCT-15 colon
786-0 renal = test system: 786-0 renal
UACC-62 melanoma = test system: UACC-62 melanoma
OVCAR-5 ovarian = test system: OVCAR-5 ovarian
SW-620 colon = test system: SW-620 colon
NCI-H23 lung = test system: NCI-H23 lung
RPMI-8226 leukemia = test system: RPMI-8226 leukemia
OVCAR-4 ovarian = test system: OVCAR-4 ovarian
MOLT-4 leukemia = test system: MOLT-4 leukemia
MDA-N = test system: MDA-N
NCI-H522 lung = test system: NCI-H522 lung
NCI-H226 lung = test system: NCI-H226 lung
UO-31 renal = test system: UO-31 renal
SK-OV-3 ovarian = test system: SK-OV-3 ovarian
NCI-H460 lung = test system: NCI-H460 lung
LOX IMVI melanoma = test system: LOX IMVI melanoma
SK-MEL-2 melanoma = test system: SK-MEL-2 melanoma
RXF 393 renal = test system: RXF 393 renal
A498 renal = test system: A498 renal
KM12 colon = test system: KM12 colon
COLO 205 colon = test system: COLO 205 colon
SNB-19 CNS = test system: SNB-19 CNS
M14 melanoma = test system: M14 melanoma
K-562 leukemia = test system: K-562 leukemia
HS 578T breast = test system: HS 578T breast
PC-3 prostate = test system: PC-3 prostate
EKVX NSCLC = test system: EKVX NSCLC
SK-MEL-28 melanoma = test system: SK-MEL-28 melanoma
MDA-MB-231 breast = test system: MDA-MB-231 breast
TK-10 renal = test system: TK-10 renal
CCRF-CEM leukemia = test system: CCRF-CEM leukemia
A549 NSCLC = test system: A549 NSCLC
HOP-92 NSCLC = test system: HOP-92 NSCLC
ACHN renal = test system: ACHN renal
SK-MEL-5 melanoma = test system: SK-MEL-5 melanoma
HOP-62 NSCLC = test system: HOP-62 NSCLC
HCC-2998 colon = test system: HCC-2998 colon
OVCAR-3 ovarian = test system: OVCAR-3 ovarian
SF-295 CNS = test system: SF-295 CNS
MDA-MB-435 = test system: MDA-MB-435
HCT-116 colon = test system: HCT-116 colon
T-47D breast = test system: T-47D breast
HT29 colon = test system: HT29 colon
OVCAR-8 ovarian = test system: OVCAR-8 ovarian
NCI/ADR-RES ovarian = test system: NCI/ADR-RES ovarian
U251 CNS = test system: U251 CNS
HL-60(TB) leukemia = test system: HL-60(TB) leukemia
IGROV1 ovarian = test system: IGROV1 ovarian
SNB-75 CNS = test system: SNB-75 CNS
BT-549 breast = test system: BT-549 breast
CAKI-1 renal = test system: CAKI-1 renal
MCF7 breast = test system: MCF7 breast
MALME-3M melanoma = test system: MALME-3M melanoma
SR leukemia = test system: SR leukemia
UACC-257 melanoma = test system: UACC-257 melanoma

CN1N=C(c2ccncc2)OC1c1ccccc1F (stereo not drawn)
TGI (DU-145 prostate): > 100 µM
TGI (SN12C renal): > 100 µM
TGI (SF-268 CNS): > 100 µM
TGI (SF-539 CNS): > 100 µM
TGI (HCT-15 colon): > 100 µM
TGI (786-0 renal): > 100 µM
TGI (UACC-62 melanoma): > 100 µM
TGI (OVCAR-5 ovarian): > 100 µM
TGI (SW-620 colon): > 100 µM
TGI (NCI-H23 lung): > 100 µM
TGI (RPMI-8226 leukemia): > 100 µM
TGI (OVCAR-4 ovarian): > 100 µM
TGI (MOLT-4 leukemia): > 100 µM
TGI (MDA-N): > 100 µM
TGI (NCI-H522 lung): > 100 µM
TGI (NCI-H226 lung): > 100 µM
TGI (UO-31 renal): > 100 µM
TGI (SK-OV-3 ovarian): > 100 µM
TGI (NCI-H460 lung): > 100 µM
TGI (LOX IMVI melanoma): > 100 µM
TGI (SK-MEL-2 melanoma): > 100 µM
TGI (RXF 393 renal): > 100 µM
TGI (A498 renal): > 100 µM
TGI (KM12 colon): > 100 µM
TGI (COLO 205 colon): > 100 µM
TGI (SNB-19 CNS): > 100 µM
TGI (M14 melanoma): > 100 µM
TGI (K-562 leukemia): > 100 µM
TGI (HS 578T breast): > 100 µM
TGI (PC-3 prostate): > 100 µM
TGI (EKVX NSCLC): > 100 µM
TGI (SK-MEL-28 melanoma): > 100 µM
TGI (MDA-MB-231 breast): > 100 µM
TGI (TK-10 renal): > 100 µM
TGI (CCRF-CEM leukemia): > 100 µM
TGI (A549 NSCLC): > 100 µM
TGI (HOP-92 NSCLC): > 100 µM
TGI (ACHN renal): > 100 µM
TGI (SK-MEL-5 melanoma): > 100 µM
TGI (HOP-62 NSCLC): > 100 µM
TGI (HCC-2998 colon): > 100 µM
TGI (OVCAR-3 ovarian): > 100 µM
TGI (SF-295 CNS): > 100 µM
TGI (MDA-MB-435): > 100 µM
TGI (HCT-116 colon): > 100 µM
TGI (T-47D breast): > 100 µM
TGI (HT29 colon): > 100 µM
TGI (OVCAR-8 ovarian): > 100 µM
TGI (NCI/ADR-RES ovarian): > 100 µM
TGI (U251 CNS): > 100 µM
TGI (HL-60(TB) leukemia): > 100 µM
TGI (IGROV1 ovarian): > 100 µM

COc1ccc(C2=C(N3CCc4ccccc43)C(=O)NC2=O)cc1
GI50 (DU-145 prostate): > 25 µM
TGI (DU-145 prostate): > 25 µM
GI50 (SNB-75 CNS): > 24.1 µM
TGI (SNB-75 CNS): > 25 µM
GI50 (SN12C renal): > 25 µM
TGI (SN12C renal): > 25 µM
GI50 (SF-268 CNS): > 25 µM
TGI (SF-268 CNS): > 25 µM
GI50 (SF-539 CNS): > 25 µM
TGI (SF-539 CNS): > 25 µM
GI50 (HCT-15 colon): > 25 µM
TGI (HCT-15 colon): > 25 µM
GI50 (786-0 renal): > 25 µM
TGI (786-0 renal): > 25 µM
GI50 (UACC-62 melanoma): > 19.9 µM
TGI (UACC-62 melanoma): > 25 µM
GI50 (BT-549 breast): 24.2 µM
TGI (BT-549 breast): > 25 µM
GI50 (OVCAR-5 ovarian): > 25 µM
TGI (OVCAR-5 ovarian): > 25 µM
GI50 (CAKI-1 renal): > 25 µM
TGI (CAKI-1 renal): > 25 µM
GI50 (SW-620 colon): > 25 µM
TGI (SW-620 colon): > 25 µM
GI50 (NCI-H23 lung): > 25 µM
TGI (NCI-H23 lung): > 25 µM
GI50 (MCF7 breast): > 25 µM
TGI (MCF7 breast): > 25 µM
GI50 (RPMI-8226 leukemia): > 22.9 µM
TGI (RPMI-8226 leukemia): > 25 µM
GI50 (OVCAR-4 ovarian): > 25 µM
TGI (OVCAR-4 ovarian): > 25 µM
GI50 (MOLT-4 leukemia): 25 µM
TGI (MOLT-4 leukemia): > 25 µM
GI50 (NCI-H522 lung): > 17.9 µM
TGI (NCI-H522 lung): > 25 µM
GI50 (NCI-H226 lung): > 25 µM
TGI (NCI-H226 lung): > 25 µM
GI50 (UO-31 renal): 9.88 µM
TGI (UO-31 renal): > 25 µM
GI50 (SK-OV-3 ovarian): > 25 µM
TGI (SK-OV-3 ovarian): > 25 µM
GI50 (NCI-H460 lung): > 25 µM
TGI (NCI-H460 lung): > 25 µM
GI50 (LOX IMVI melanoma): > 25 µM
TGI (LOX IMVI melanoma): > 25 µM
GI50 (SK-MEL-2 melanoma): > 25 µM
TGI (SK-MEL-2 melanoma): > 25 µM
GI50 (RXF 393 renal): > 25 µM
TGI (RXF 393 renal): > 25 µM
GI50 (A498 renal): > 16.6 µM
TGI (A498 renal): > 25 µM
GI50 (KM12 colon): > 25 µM
TGI (KM12 colon): > 25 µM
GI50 (COLO 205 colon): > 25 µM
TGI (COLO 205 colon): > 25 µM
GI50 (SNB-19 CNS): > 25 µM
TGI (SNB-19 CNS): > 25 µM
GI50 (M14 melanoma): > 25 µM
TGI (M14 melanoma): > 25 µM
GI50 (K-562 leukemia): > 17.4 µM
TGI (K-562 leukemia): > 25 µM
GI50 (HS 578T breast): > 20.9 µM
TGI (HS 578T breast): > 25 µM
GI50 (PC-3 prostate): > 20.2 µM
TGI (PC-3 prostate): > 25 µM
GI50 (EKVX NSCLC): > 24 µM
TGI (EKVX NSCLC): > 25 µM
GI50 (SK-MEL-28 melanoma): > 25 µM
TGI (SK-MEL-28 melanoma): > 25 µM
GI50 (MDA-MB-231 breast): > 22.4 µM
TGI (MDA-MB-231 breast): > 25 µM
GI50 (TK-10 renal): > 24.2 µM
TGI (TK-10 renal): > 25 µM
GI50 (CCRF-CEM leukemia): 2.73 µM
TGI (CCRF-CEM leukemia): > 11.7 µM
GI50 (A549 NSCLC): > 25 µM
TGI (A549 NSCLC): > 25 µM
GI50 (HOP-92 NSCLC): 0.642 µM
TGI (HOP-92 NSCLC): 19.7 µM
GI50 (MALME-3M melanoma): > 25 µM
TGI (MALME-3M melanoma): > 25 µM
GI50 (ACHN renal): > 25 µM
TGI (ACHN renal): > 25 µM
GI50 (SK-MEL-5 melanoma): > 21.6 µM
TGI (SK-MEL-5 melanoma): > 25 µM
GI50 (SR leukemia): 13.7 µM
TGI (SR leukemia): > 25 µM
GI50 (HOP-62 NSCLC): > 25 µM
TGI (HOP-62 NSCLC): > 25 µM
GI50 (HCC-2998 colon): > 25 µM
TGI (HCC-2998 colon): > 25 µM
GI50 (OVCAR-3 ovarian): > 25 µM
TGI (OVCAR-3 ovarian): > 25 µM
GI50 (SF-295 CNS): > 25 µM
TGI (SF-295 CNS): > 25 µM
GI50 (UACC-257 melanoma): > 25 µM
TGI (UACC-257 melanoma): > 25 µM
GI50 (MDA-MB-435): > 25 µM
TGI (MDA-MB-435): > 25 µM
GI50 (HCT-116 colon): > 25 µM
TGI (HCT-116 colon): > 25 µM
GI50 (T-47D breast): > 17.8 µM
TGI (T-47D breast): > 25 µM
GI50 (HT29 colon): > 25 µM
TGI (HT29 colon): > 25 µM
GI50 (OVCAR-8 ovarian): > 25 µM
TGI (OVCAR-8 ovarian): > 25 µM
GI50 (NCI/ADR-RES ovarian): > 25 µM
TGI (NCI/ADR-RES ovarian): > 25 µM
GI50 (U251 CNS): > 25 µM
TGI (U251 CNS): > 25 µM
GI50 (HL-60(TB) leukemia): > 21.1 µM
TGI (HL-60(TB) leukemia): > 25 µM
GI50 (IGROV1 ovarian): > 25 µM
TGI (IGROV1 ovarian): > 25 µM
